Laboratory results: PubChem BioAssay AID504473 (NMMLSC, 2011)
The source made the active and inactive calls.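 Rule for the calls: active = GFP ratio to DMSO above 1.5 or below 0.66; inactive = the rest.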

Experiments:
Assay in all cases: expression changes of rapamycin-responsive GFP fusion proteins, S. cerevisiae, GFP-tagged clone panel, flow cytometry (AID 504473);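 note: median GFP fluorescence of the cells measured by high-throughput flow cytometry; test concentration not given here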
YGL062W = settings: S. cerevisiae GFP-tagged strains, 3 h
YER156C = settings: S. cerevisiae GFP-tagged strains, 3 h
YDR382W = settings: S. cerevisiae GFP-tagged strains, 3 h
YBR248C = settings: S. cerevisiae GFP-tagged strains, 3 h
YHR203C = settings: S. cerevisiae GFP-tagged strains, 3 h
YGR121C = settings: S. cerevisiae GFP-tagged strains, 3 h
YFR053C = settings: S. cerevisiae GFP-tagged strains, 3 h
YEL060C = settings: S. cerevisiae GFP-tagged strains, 3 h
YLR367W = settings: S. cerevisiae GFP-tagged strains, 3 h
YFR031C-A = settings: S. cerevisiae GFP-tagged strains, 3 h
YOR063W = settings: S. cerevisiae GFP-tagged strains, 3 h
YCR002C = settings: S. cerevisiae GFP-tagged strains, 3 h
YAL060W = settings: S. cerevisiae GFP-tagged strains, 3 h
YLR287C-A = settings: S. cerevisiae GFP-tagged strains, 3 h
YBR072W = settings: S. cerevisiae GFP-tagged strains, 3 h
YIL052C = settings: S. cerevisiae GFP-tagged strains, 3 h
YML004C = settings: S. cerevisiae GFP-tagged strains, 3 h
YER117W = settings: S. cerevisiae GFP-tagged strains, 3 h
YPL220W = settings: S. cerevisiae GFP-tagged strains, 3 h
YGR034W = settings: S. cerevisiae GFP-tagged strains, 3 h
YKR093W = settings: S. cerevisiae GFP-tagged strains, 3 h
YHR144C = settings: S. cerevisiae GFP-tagged strains, 3 h
YHR018C = settings: S. cerevisiae GFP-tagged strains, 3 h
YDL205C = settings: S. cerevisiae GFP-tagged strains, 3 h
YMR105C = settings: S. cerevisiae GFP-tagged strains, 3 h
YKR039W = settings: S. cerevisiae GFP-tagged strains, 3 h
YNL015W = settings: S. cerevisiae GFP-tagged strains, 3 h
YKL119C = settings: S. cerevisiae GFP-tagged strains, 3 h
YHR087W = settings: S. cerevisiae GFP-tagged strains, 3 h
YER081W = settings: S. cerevisiae GFP-tagged strains, 3 h
YNL142W = settings: S. cerevisiae GFP-tagged strains, 3 h
YJL056C = settings: S. cerevisiae GFP-tagged strains, 3 h
YOR375C = settings: S. cerevisiae GFP-tagged strains, 3 h
YCR005C = settings: S. cerevisiae GFP-tagged strains, 3 h
YCL064C = settings: S. cerevisiae GFP-tagged strains, 3 h
YNL068C = settings: S. cerevisiae GFP-tagged strains, 3 h
YDL130W = settings: S. cerevisiae GFP-tagged strains, 3 h
YML063W = settings: S. cerevisiae GFP-tagged strains, 3 h
YPL111W = settings: S. cerevisiae GFP-tagged strains, 3 h
YLR185W = settings: S. cerevisiae GFP-tagged strains, 3 h
YBR139W = settings: S. cerevisiae GFP-tagged strains, 3 h
YIL069C = settings: S. cerevisiae GFP-tagged strains, 3 h
YLR058C = settings: S. cerevisiae GFP-tagged strains, 3 h
YLR237W = settings: S. cerevisiae GFP-tagged strains, 3 h
YDR453C = settings: S. cerevisiae GFP-tagged strains, 3 h
YBR208C = settings: S. cerevisiae GFP-tagged strains, 3 h
YLL039C = settings: S. cerevisiae GFP-tagged strains, 3 h
YPR184W = settings: S. cerevisiae GFP-tagged strains, 3 h
YML128C = settings: S. cerevisiae GFP-tagged strains, 3 h
YDR070C = settings: S. cerevisiae GFP-tagged strains, 3 h
YAL061W = settings: S. cerevisiae GFP-tagged strains, 3 h
YIL066C = settings: S. cerevisiae GFP-tagged strains, 3 h
YKL086W = settings: S. cerevisiae GFP-tagged strains, 3 h
YJR148W = settings: S. cerevisiae GFP-tagged strains, 3 h
YNR001C = settings: S. cerevisiae GFP-tagged strains, 3 h
YEL063C = settings: S. cerevisiae GFP-tagged strains, 3 h
YKL103C = settings: S. cerevisiae GFP-tagged strains, 3 h
YOL052C-A = settings: S. cerevisiae GFP-tagged strains, 3 h
YER151C = settings: S. cerevisiae GFP-tagged strains, 3 h
[1] = target: General amino acid permease AGP1 (Saccharomyces cerevisiae S288c) (UniProt P25376); settings: S. cerevisiae GFP-tagged strains, 3 h, YCL025C
YMR307W = settings: S. cerevisiae GFP-tagged strains, 3 h
YJL144W = settings: S. cerevisiae GFP-tagged strains, 3 h
YLR142W = settings: S. cerevisiae GFP-tagged strains, 3 h
YIL043C = settings: S. cerevisiae GFP-tagged strains, 3 h
YGL147C = settings: S. cerevisiae GFP-tagged strains, 3 h
YBL087C = settings: S. cerevisiae GFP-tagged strains, 3 h
YGL036W = settings: S. cerevisiae GFP-tagged strains, 3 h
YNL214W = settings: S. cerevisiae GFP-tagged strains, 3 h
YPR145W = settings: S. cerevisiae GFP-tagged strains, 3 h
YNL112W = settings: S. cerevisiae GFP-tagged strains, 3 h
YPL131W = settings: S. cerevisiae GFP-tagged strains, 3 h
YOR173W = settings: S. cerevisiae GFP-tagged strains, 3 h
YIL051C = settings: S. cerevisiae GFP-tagged strains, 3 h
YHL021C = settings: S. cerevisiae GFP-tagged strains, 3 h
YOR136W = settings: S. cerevisiae GFP-tagged strains, 3 h
YDR399W = settings: S. cerevisiae GFP-tagged strains, 3 h
YOR182C = settings: S. cerevisiae GFP-tagged strains, 3 h
YGR088W = settings: S. cerevisiae GFP-tagged strains, 3 h
YMR120C = settings: S. cerevisiae GFP-tagged strains, 3 h
YML026C = settings: S. cerevisiae GFP-tagged strains, 3 h
YLR109W = settings: S. cerevisiae GFP-tagged strains, 3 h
YKR094C = settings: S. cerevisiae GFP-tagged strains, 3 h
YGL135W = settings: S. cerevisiae GFP-tagged strains, 3 h
YPL265W = settings: S. cerevisiae GFP-tagged strains, 3 h
YPR132W = settings: S. cerevisiae GFP-tagged strains, 3 h
YDL204W = settings: S. cerevisiae GFP-tagged strains, 3 h
YEL007W = settings: S. cerevisiae GFP-tagged strains, 3 h
YMR251W-A = settings: S. cerevisiae GFP-tagged strains, 3 h
YEL071W = settings: S. cerevisiae GFP-tagged strains, 3 h
YLL026W = settings: S. cerevisiae GFP-tagged strains, 3 h
YHR141C = settings: S. cerevisiae GFP-tagged strains, 3 h
YOR038C = settings: S. cerevisiae GFP-tagged strains, 3 h
YOR371C = settings: S. cerevisiae GFP-tagged strains, 3 h
YGR019W = settings: S. cerevisiae GFP-tagged strains, 3 h
YPL150W = settings: S. cerevisiae GFP-tagged strains, 3 h
YML034W = settings: S. cerevisiae GFP-tagged strains, 3 h

Chain of General amino acid permease AGP1 (Saccharomyces cerevisiae S288c) (P25376 whole entry, looked up): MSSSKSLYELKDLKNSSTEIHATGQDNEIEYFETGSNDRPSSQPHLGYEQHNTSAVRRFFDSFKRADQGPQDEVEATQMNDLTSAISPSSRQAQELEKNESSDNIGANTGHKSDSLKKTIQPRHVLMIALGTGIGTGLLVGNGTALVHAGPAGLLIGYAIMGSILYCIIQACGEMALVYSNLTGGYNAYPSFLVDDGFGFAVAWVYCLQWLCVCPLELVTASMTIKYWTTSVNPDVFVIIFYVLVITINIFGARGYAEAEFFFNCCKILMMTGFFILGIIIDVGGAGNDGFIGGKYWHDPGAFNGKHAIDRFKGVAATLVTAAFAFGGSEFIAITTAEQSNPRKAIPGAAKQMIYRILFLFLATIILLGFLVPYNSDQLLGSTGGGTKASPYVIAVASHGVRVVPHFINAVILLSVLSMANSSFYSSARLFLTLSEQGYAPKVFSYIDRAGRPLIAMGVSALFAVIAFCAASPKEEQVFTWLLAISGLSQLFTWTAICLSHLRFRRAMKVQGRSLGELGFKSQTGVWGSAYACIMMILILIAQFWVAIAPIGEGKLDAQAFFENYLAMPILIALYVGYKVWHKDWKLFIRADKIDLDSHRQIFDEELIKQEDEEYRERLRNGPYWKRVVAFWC

SMILES: CNc1nc(N)c([N+](=O)[O-])c(Nc2cccc(Cl)c2)n1
- GFP ratio to DMSO (YGL062W): 1.65
- GFP ratio to DMSO (YER156C): 1.01 (inactive)
- GFP ratio to DMSO (YDR382W): 1.1 (inactive)
- GFP ratio to DMSO (YBR248C): 1.01 (inactive)
- GFP ratio to DMSO (YHR203C): 1.04 (inactive)
- GFP ratio to DMSO (YGR121C): 1.02 (inactive)
- GFP ratio to DMSO (YFR053C): 0.888 (inactive)
- GFP ratio to DMSO (YEL060C): 0.826 (inactive)
- GFP ratio to DMSO (YLR367W): 1.01 (inactive)
- GFP ratio to DMSO (YFR031C-A): 1.02 (inactive)
- GFP ratio to DMSO (YOR063W): 1.1 (inactive)
- GFP ratio to DMSO (YCR002C): 0.916 (inactive)
- GFP ratio to DMSO (YAL060W): 0.91 (inactive)
- GFP ratio to DMSO (YLR287C-A): 1.04 (inactive)
- GFP ratio to DMSO (YBR072W): 0.849 (inactive)
- GFP ratio to DMSO (YIL052C): 0.864 (inactive)
- GFP ratio to DMSO (YML004C): 0.875 (inactive)
- GFP ratio to DMSO (YER117W): 0.883 (inactive)
- GFP ratio to DMSO (YPL220W): 1.07 (inactive)
- GFP ratio to DMSO (YGR034W): 1.01 (inactive)
- GFP ratio to DMSO (YKR093W): 1.61
- GFP ratio to DMSO (YHR144C): 0.837 (inactive)
- GFP ratio to DMSO (YHR018C): 0.948 (inactive)
- GFP ratio to DMSO (YDL205C): 0.943 (inactive)
- GFP ratio to DMSO (YMR105C): 1.17 (inactive)
- GFP ratio to DMSO (YKR039W): 1.35 (inactive)
- GFP ratio to DMSO (YNL015W): 0.947 (inactive)
- GFP ratio to DMSO (YKL119C): 0.951 (inactive)
- GFP ratio to DMSO (YHR087W): 0.926 (inactive)
- GFP ratio to DMSO (YER081W): 1.21 (inactive)
- GFP ratio to DMSO (YNL142W): 1.32 (inactive)
- GFP ratio to DMSO (YJL056C): 0.808 (inactive)
- GFP ratio to DMSO (YOR375C): 1.17 (inactive)
- GFP ratio to DMSO (YCR005C): 2.27
- GFP ratio to DMSO (YCL064C): 0.902 (inactive)
- GFP ratio to DMSO (YNL068C): 0.946 (inactive)
- GFP ratio to DMSO (YDL130W): 1.06 (inactive)
- GFP ratio to DMSO (YML063W): 1.04 (inactive)
- GFP ratio to DMSO (YPL111W): 1.25 (inactive)
- GFP ratio to DMSO (YLR185W): 1.04 (inactive)
- GFP ratio to DMSO (YBR139W): 0.935 (inactive)
- GFP ratio to DMSO (YIL069C): 1.1 (inactive)
- GFP ratio to DMSO (YLR058C): 0.859 (inactive)
- GFP ratio to DMSO (YLR237W): 0.77 (inactive)
- GFP ratio to DMSO (YDR453C): 1.02 (inactive)
- GFP ratio to DMSO (YBR208C): 1.16 (inactive)
- GFP ratio to DMSO (YLL039C): 0.725 (inactive)
- GFP ratio to DMSO (YPR184W): 0.958 (inactive)
- GFP ratio to DMSO (YML128C): 0.923 (inactive)
- GFP ratio to DMSO (YDR070C): 1.14 (inactive)
- GFP ratio to DMSO (YAL061W): 0.887 (inactive)
- GFP ratio to DMSO (YIL066C): 0.868 (inactive)
- GFP ratio to DMSO (YKL086W): 0.896 (inactive)
- GFP ratio to DMSO (YJR148W): 1.71
- GFP ratio to DMSO (YNR001C): 1.17 (inactive)
- GFP ratio to DMSO (YEL063C): 1.09 (inactive)
- GFP ratio to DMSO (YKL103C): 1.21 (inactive)
- GFP ratio to DMSO (YOL052C-A): 1.17 (inactive)
- GFP ratio to DMSO (YER151C): 0.926 (inactive)
- GFP ratio to DMSO [1]: 0.961 (inactive)
- GFP ratio to DMSO (YMR307W): 0.996 (inactive)
- GFP ratio to DMSO (YJL144W): 0.983 (inactive)
- GFP ratio to DMSO (YLR142W): 0.835 (inactive)
- GFP ratio to DMSO (YIL043C): 1 (inactive)
- GFP ratio to DMSO (YGL147C): 0.988 (inactive)
- GFP ratio to DMSO (YBL087C): 0.955 (inactive)
- GFP ratio to DMSO (YGL036W): 0.781 (inactive)
- GFP ratio to DMSO (YNL214W): 0.938 (inactive)
- GFP ratio to DMSO (YPR145W): 1.32 (inactive)
- GFP ratio to DMSO (YNL112W): 1.07 (inactive)
- GFP ratio to DMSO (YPL131W): 1.09 (inactive)
- GFP ratio to DMSO (YOR173W): 0.891 (inactive)
- GFP ratio to DMSO (YIL051C): 0.981 (inactive)
- GFP ratio to DMSO (YHL021C): 1.11 (inactive)
- GFP ratio to DMSO (YOR136W): 1.19 (inactive)
- GFP ratio to DMSO (YDR399W): 0.977 (inactive)
- GFP ratio to DMSO (YOR182C): 1.02 (inactive)
- GFP ratio to DMSO (YGR088W): 1.07 (inactive)
- GFP ratio to DMSO (YMR120C): 0.553
- GFP ratio to DMSO (YML026C): 0.93 (inactive)
- GFP ratio to DMSO (YLR109W): 1.3 (inactive)
- GFP ratio to DMSO (YKR094C): 1.06 (inactive)
- GFP ratio to DMSO (YGL135W): 1.07 (inactive)
- GFP ratio to DMSO (YPL265W): 1.62
- GFP ratio to DMSO (YPR132W): 1.13 (inactive)
- GFP ratio to DMSO (YDL204W): 0.851 (inactive)
- GFP ratio to DMSO (YEL007W): 0.89 (inactive)
- GFP ratio to DMSO (YMR251W-A): 1.01 (inactive)
- GFP ratio to DMSO (YEL071W): 2.01
- GFP ratio to DMSO (YLL026W): 1.07 (inactive)
- GFP ratio to DMSO (YHR141C): 1.04 (inactive)
- GFP ratio to DMSO (YOR038C): 0.974 (inactive)
- GFP ratio to DMSO (YOR371C): 0.826 (inactive)
- GFP ratio to DMSO (YGR019W): 1.02 (inactive)
- GFP ratio to DMSO (YPL150W): 0.863 (inactive)
- GFP ratio to DMSO (YML034W): 0.842 (inactive)
